Read-outs that look alike come from different tables or passages of the source.

The subject of series [1] is L1210 cells. In words: L1210 cell growth inhibition. Format: cell-based. Particulars: Mus musculus.
The subject of series [2] is Polyamine pools in L1210 cells. The series can be described thus: Effect on polyamine pools in L1210 cells. The format is cell-based. Conditions: 48 h of treatment.
The conditions of series [3]: mice, three weeks after a seven day schedule; cited from earlier work.
The subject of series [4] is Polyamine pools in L1210 cells. Particulars: 48 h of treatment, cited from earlier work.

Turning to `CCNCCCNCCC(N)CNCCCNCC` (stereo not shown) [6-NH2-DESPM, 6 amino-N^1,N^12-diethylspermine], the concentration for half-maximal inhibition (IC50) in series [1] (48 h, read-out: IC50 48 h) amounted to 8 µM. Moreover, the concentration for half-maximal inhibition (IC50) in series [1] (96 h, read-out: IC50 96 h) is 0.4 µM. For the same compound, in series [2] (10 µM), the PUT is reported as 39 ± 9% of untreated controls, the SPD is given as 16 ± 3% of untreated controls and the SPM is given as 54 ± 11% of untreated controls. Further, in series [2] (50 µM), the PUT is given as 26 ± 1% of untreated controls, the SPD is listed as 7 ± 0% of untreated controls and the SPM is 32 ± 1% of untreated controls.

Consider `CCNCCCCNCCCCNCCCCNCC` [DEHSPM, Diethylhomospermine], for which, in series [3], the “drug administered remaining in the liver and kidney as drug or metabolites” value is 35%; the “drug remaining in the animal in the form of HSPM” value is reported as 90%.

Take `CCNCCCNCCCCNCCCNCC` [DESPM]: in series [4] (30 µM), the PUT is reported as 0% of untreated controls, the SPD is 0% of untreated controls and the SPM is recorded as 12% of untreated controls. Also, in series [4] (150 µM), the PUT was 0% of untreated controls, the SPD is 0% of untreated controls and the SPM is listed as 14% of untreated controls.

In the case of `FC(F)(F)CNCCCNCCCCNCCCNCC(F)(F)F` [FDESPM], in series [4] (100 µM), the PUT is recorded as 100% of untreated controls, the SPD is 103% of untreated controls and the SPM is on record as 108% of untreated controls.

Source of the values: patent US7423182B2, “Aminated polyamines” (University of Florida, priority 2004, dated 2008).
